The values that follow come from article PMC12073635, “Synthesis of Tricyclic and Tetracyclic Lactone Derivatives of Thieno[2,3-b]pyrazine or Thieno[2,3-b]quinoline: Preliminary Antitumor and Antiparasitic Activity Evaluation” (Molecules, 2025).

Data set [1] can be described thus: SRB assay, toxicity in non-tumor PLP2 cells. The class given is cell-based, pig. Conditions: PLP2 primary pig liver cells (non-tumor); non-tumor primary pig liver cells, SRB assay, 72 h, mean ± standard deviation.
Data set [2] relates to PLP2 (primary pig liver cell culture). Description: SRB assay, toxicity in non-tumor PLP2 cells. As to conditions: at the GI50 concentrations. The class given is cell-based.
For data set [3], the system named is L. infantum MHOM/MA/67/ITMAP-263 promastigotes. Nature of the data set: Resazurin-based assay against L. infantum promastigotes. Conditions: Leishmania infantum, 72 h, dose-response. The class given is cell-based, Leishmania infantum. As to the method:
The antiparasitic activity of compounds 2c–g, 3a, 5a and 7 was evaluated at a single concentration of 20 μM, against Trypanosoma brucei (T. brucei) and Leishmania infantum (L. infantum) promastigotes. The results are shown in Table 9 together with the cytotoxicity data (CC50) in THP-1–derived macrophages cells.
L. infantum MHOM/MA/67/ITMAP-263 promastigotes forms were grown at 27 °C, in complete RPMI-1640 medium supplemented with 10% heat-inactivated Fetal Bovine Serum (FBS), 2 mM L-glutamine, 100 UI/mL penicillin/streptomycin, 20 mM HEPES. Parasites maintenance was performed in T25 non-ventilated flasks by subpassage at a concentration of 1 × 10^6/mL every 5 days on T25 non-ventilated flasks.
The compounds’ efficacy against L. infantum promastigotes was evaluated using a resazurin-based assay. Parasites were added to 100 µL of serial dilutions of compounds in supplemented complete medium at a cell density of 5 × 10^5/mL. As a quality control, a dose–response curve to the antileishmanial drug miltefosine was included in all the assays. The final volume of the assay was 200 µL/well. Each condition was carried out in duplicate. Following 72 h of incubation at the specific conditions for L. infantum, 20 µL of a 0.5 mM resazurin solution was added, and the plates were incubated for a further 4 h under the same conditions. The methodology to obtain the results was the same described in Section 3.2.2. for T. brucei.

Data set [4] has as its system five human tumor cell lines (CaCo-2, MCF-7, AGS, HeLa, NCI-H460). Nature of the data set: SRB assay, statements over the five human tumor cell lines. Conditions: text statement over CaCo-2, MCF-7, AGS, read-out: GI50 in all tested human tumor cell lines. The class given is cell-based. As to the method:
The antitumor potential of the Sonogashira coupling products 2, tricyclic lactones 3 and 5, and tetracyclic lactones 7 was evaluated using the sulforhodamine B (SRB) assay against five human tumor cell lines: colorectal adenocarcinoma (CaCo-2), breast adenocarcinoma (MCF-7), gastric adenocarcinoma (AGS), cervical carcinoma (HeLa), and non-small cell lung cancer (NCI-H460). A primary pig liver cell culture (PLP2) was used to assess the toxicity of compounds.
The human tumor cell lines used were CaCo-2 (colorectal adenocarcinoma), MCF-7 (breast adenocarcinoma), AGS (gastric adenocarcinoma), HeLa (cervical carcinoma), NCI-H460 (lung carcinoma). Non-tumor cell lines were also tested: PLP2 (primary pig liver culture). All the cell lines were maintained in RPMI-1640 medium supplemented with 10% fetal bovine serum, glutamine (2 mM), penicillin (100 U/mL), and streptomycin ([…]), with the exception of PLP2, which was maintained in DMEM medium supplemented with fetal bovine serum (10%), glutamine and antibiotics. The culture flasks were incubated at 37 °C and with 5% CO2, under a humid atmosphere. The cells were used only when they had 70 to 80% confluence. […] Finally, an adhered SRB was solubilized with Tris (10 mM, 200 μL) and the absorbance at a wavelength of 540 nm was read in the Biotek ELX800 microplate reader. […]

As for `COC(=O)c1sc2nccnc2c1C#Cc1ccccn1` [Compound 2f, Methyl 7-(pyridin-2-ylethynyl)thieno[2,3-b]pyrazine-6-carboxylate], the GI50 at 72 h in data set [1] was found to be 57.9 ± 4.31 µM. Besides, the “toxicity in PLP2 cells (in words)” value in data set [2] is given as “without significant toxicity”. In addition, the IC50 in data set [3] was found to be 16 µM. Further, the GI50 in data set [4] was below 10 µM.

Consider `O=c1oc(-c2ccccn2)cc2c1sc1nccnc12` [Compound 3f, 8-(Pyridin-2-yl)-6H-pyrano[4′,3′:4,5]thieno[2,3-b]pyrazin-6-one], for which, in data set [1], the GI50 at 72 h was above 125 µM. The “toxicity in PLP2 cells (in words)” value in data set [2] is “low toxicity”. Also, in data set [4], the 50% growth inhibitory concentration (GI50) is below 10 µM.
